The conditions of the data set: Crystal; DTA.

Numbers after ± are expanded uncertainties.

`c1ccc2c(c1)oc1ccccc12` [dibenzo[bd]furan]: the Normal melting temperature is 82.51 ± 0.41 °C.

Take `c1ccc2c(c1)Cc1ccccc1-2` [fluorene]: the Normal melting temperature turned out to be 114.38 ± 0.41 °C.
